Source: patent US7381429B2, “Extracts from sophora species, method for producing the same and their use” (Dr. Willmar Schwabe GmbH & Co., priority 2000, dated 2008)

Experiments:
Ishikawa-Var-I cells = conditions: cited from earlier work
[1] = target: T1, human α oestrogen receptor (Homo sapiens, UniProt P03372); experiment: Reportergen assay for oestrogenic activity with transfected yeast cells; format: cell-based; conditions: yeast cells expressing human α oestrogen receptor, β galactosidase reporter, 72 hours at 32° C.
T1 construct: expressed in transfected cells; host or cells: yeast cells (saccharomyces)
T1 sequence (P03372 1-595): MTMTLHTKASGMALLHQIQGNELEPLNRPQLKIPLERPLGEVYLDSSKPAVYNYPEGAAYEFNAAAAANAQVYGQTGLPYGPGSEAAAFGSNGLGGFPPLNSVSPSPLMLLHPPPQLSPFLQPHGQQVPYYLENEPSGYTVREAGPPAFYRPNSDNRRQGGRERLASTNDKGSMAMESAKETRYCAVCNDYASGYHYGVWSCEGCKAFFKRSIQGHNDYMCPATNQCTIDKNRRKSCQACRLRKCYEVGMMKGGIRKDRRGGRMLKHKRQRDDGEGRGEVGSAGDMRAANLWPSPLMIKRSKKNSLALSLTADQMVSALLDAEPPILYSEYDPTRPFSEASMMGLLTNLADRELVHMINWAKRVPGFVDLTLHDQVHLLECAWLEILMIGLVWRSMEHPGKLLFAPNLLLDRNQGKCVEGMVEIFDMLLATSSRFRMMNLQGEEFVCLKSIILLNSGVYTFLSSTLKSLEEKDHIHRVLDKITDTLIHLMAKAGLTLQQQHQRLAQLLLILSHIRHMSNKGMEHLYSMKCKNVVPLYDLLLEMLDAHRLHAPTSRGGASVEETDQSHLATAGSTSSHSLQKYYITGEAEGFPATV
Method: Testing the ethylacetate extracts produced for oestrogenic activity with transfected yeast cells, which express the human α oestrogen receptor.
The testing of extracts for oestrogenic properties was performed with a Reportergen assay, using yeast cells (saccharomyces). These cells are stable with the human α oestrogen receptor and an expression plasmid which contains an oestrogen response element and the gene for the enzyme β galactosidase. All samples were dissolved in DMSO at a concentration of 20 mg/ml, and were given undiluted or after diluting with DMSO at the ratio of 1/10, 1/100 or at a volume of 1 μl to 100 μl culture medium in 96-well flat-bottom micro-titre dishes. Next, 100 μl yeast suspension and the chromogenous substrate chlorophenolred-β-D-galactopyranoside were added. […] The yeast cells were incubated for 72 hours at 32° C., after which absorption of the medium was measured at 540 nm in a micro-titre dish photometer. The samples were sometimes checked twice.

[2] = animal studies; cited from earlier work

SMILES: CC(C)=CCc1c(O)cc(O)c2c1O[C@H](c1ccc(O)cc1)CC2=O [8-prenylnaringenine]
- oestrogenic effect compared with 17β oestradiol (Ishikawa-Var-I cells; versus 17β oestradiol): only a slightly weaker effect than 17β oestradiol
- oestrogenic potency compared with known phyto-oestrogens (Ishikawa-Var-I cells; versus coumestrol, genistein or daidzein): significantly more active than the phyto-oestrogens known so far

SMILES: OC[C@H]1O[C@@H](Oc2ccc3c(c2)OC[C@H]2c4cc5c(cc4O[C@@H]32)OCO5)[C@H](O)[C@@H](O)[C@@H]1O [maackiain glucoside]
- oestrogenic activity in yeast assay [1]: relevant to the effectiveness of the extract

SMILES: Oc1ccc2c(c1)OC[C@H]1c3cc4c(cc3O[C@@H]21)OCO4 [maackiain]
- oestrogenic activity in yeast assay [1]: relevant to the effectiveness of the extract

SMILES: O=C1CCC[C@@H]2[C@H]3CCC[N+]4([O-])CCC[C@@H](CN12)[C@@H]34 (some centres unmarked) [oxymatrine]
- toxic effects [2]: toxic effects could be shown
